SMILES strings stand for the structures. Residues, ends and D or L forms follow the SMILES beside them.

The test system of one data set is HT22 cells. Briefly: ApoTox-Glo Triplex assay (viability, cytotoxicity, caspase 3/7), AβO-exposed cells. The following applies: 12 h. Type of data set: cell-based, mouse. How it is done: The ApoTox-Glo^TM Triplex assay (Promega, Madison, WI) was performed to assess the viability, cytotoxicity and caspase^3/7 activation in the human neuroblastoma SH-SY5Y and mouse hippocampal HT22 cells. SH-SY5Y and HT22 cells (2×10^4/ml) were cultured in 96-well plates (Thermo Fisher Scientific) containing DMEM supplemented with 10% FBS and 1% antibiotics and incubated at 37°C in a humidified incubator containing 5% CO2. After reaching 70% confluency, the cells were treated with AβO (1 µM) and different concentrations of Os-pep (0.5, 1, 5 and 10 µM) for 12 h. The control group (cells treated with 0.01% DMSO) was also analyzed. In addition, SH-SY5Y and HT22 cells were transfected with the AdipoR1 siRNA (h) (SC-60123) and AdipoR1 siRNA (m) (SC-60124), respectively, and treated with AβO (1 µM) and Os-pep (10 µM) for 12 h; the control group was transfected with the negative siRNA (Ambion, Thermo Fisher Scientific) and treated with 0.01% DMSO. The assay was performed according to our previously described protocols.

A further data set relates to AdipoR1/p-AMPK signaling. The data set is described as follows: AdipoR1/p-AMPK signaling in in vitro AD models (immunoblot, ELISA, AMPK assay). The format is cell-based, human. The following applies: 10 μM, 12 h. Here is the method:
Human neuroblastoma SH-SY5Y cells were seeded (in 6-well culture plates for immunoblotting and in chamber slides for immunofluorescence) in DMEM (Dulbecco’s modified Eagle medium) containing 10% fetal bovine serum (FBS) and 1% antibiotics (penicillin-streptomycin) and incubated at 37 °C in humidified air containing 5% CO2. Once the cells reached 70–80% confluence, the cells were transfected using the pCAX vector containing the APPswe/ind gene using Lipofectamine 3000 (Life Technologies) according to the provider’s protocols. […]
SH-SY5Y (2×10^4/ml) cells used for ELISA and AMPK assays were cultured in 35-mm dishes in the presence of culture medium of DMEM containing FBS (10%) and antibiotics (1%) at 37°C in humidified air containing 5% CO2 to 70-75% confluences. […] Seventy-two hours after transfections, cells were treated with Os-pep (10 µM) for 12 h and cell lysates were collected and analyzed using ELISAs and immunoassays, as appropriate.
The AdipoR1 expressions were measured in the brain homogenates from APP/PS1 and Adipo-^/- mice and in lysates from APPswe/ind-overexpressed SH-SY5Y cells transfected with the AdipoR1 siRNA and treated Os-pep (10 µM) in vitro using the mouse and human AdipoR1 ELISA kits, accordingly to the provider’s instructions (MyBioSource). […]
(Immunoblotting shows a protein as a band on a membrane.)

Another data set deals with Synap and PSD95. Briefly: Synap and PSD95 in APPswe/ind-overexpressing SH-SY5Y cells, immunoblot. Type of data set: cell-based, human. The following applies: Os-pep 10 μM. Here is the method:
Human neuroblastoma SH-SY5Y cells were seeded (in 6-well culture plates for immunoblotting and in chamber slides for immunofluorescence) in DMEM (Dulbecco’s modified Eagle medium) containing 10% fetal bovine serum (FBS) and 1% antibiotics (penicillin-streptomycin) and incubated at 37 °C in humidified air containing 5% CO2. Once the cells reached 70–80% confluence, the cells were transfected using the pCAX vector containing the APPswe/ind gene using Lipofectamine 3000 (Life Technologies) according to the provider’s protocols. AdipoR1 siRNA (h) (SC-60123) and AMPK siRNA (h) (SC-45312) (Santa Cruz Biotechnology, Inc.) were used at a concentration of 10 μM per transfection and expressed for 72 h according to the manufacturer’s protocol (Santa Cruz Biotechnology, Inc.). A negative siRNA (Ambion, Thermo Fisher Scientific) was used as a control. Seventy-two hours after the transfections, the cells were exposed to Os-pep (10 μM) for 12 h and then subjected to immunoblotting and immunofluorescence analyses.
Human neuroblastoma SH-SY5Y cells were treated with 1 µM of insulin for 48 h to produce intrinsic insulin-resistant human neuroblastoma (SH-SY5YIR) cells. […]

Regarding `C[C@@H](O)[C@H](NC(=O)[C@@H]1CCCN1C(=O)CNC(=O)[C@H](CS)NC(=O)[C@@H]1CCCN1C(=O)CNC(=O)[C@H](CCC(N)=O)NC(=O)[C@@H](NC(=O)[C@@H](N)CS)[C@@H](C)O)C(=O)O` [Os-pep] (H-CTQGPCGPT-OH; N-terminus and C-terminus assumed), the “AβO-induced toxicity with AdipoR1 siRNA” value in the data set with HT22 cells (AdipoR1 siRNA-transfected HT22, AβO 1 μM, Os-pep 10 μM) is on record as “did not reduce the AβO-induced toxicity”. The “AβO neurotoxicity (viability, cytotoxicity, caspase 3/7)” value with HT22 cells (HT22, AβO 1 μM, Os-pep 10 μM) is reported as “significantly reduced AβO (1 μM) neurotoxicity”. Further, the “neurotoxic effects of AβO” value with HT22 cells (HT22, AβO 1 μM, cotreatment 0.5, 1, 5 and 10 μM) is reported as “reduced the neurotoxic effects of AβO”. Further, the “AdipoR1/AMPK signaling with AdipoR1 knockdown” value in the data set on AdipoR1/p-AMPK signaling (APPswe/ind SH-SY5Y with AdipoR1 siRNA, ELISA and AMPK assay) is listed as “did not promote the stimulation of AdipoR1/AMPK signaling”. Further, the “neuronal AdipoR1/p-AMPK signaling” value in the data set with AdipoR1/p-AMPK signaling (AβO-treated and human APPswe/ind-overexpressing SH-SY5Y cells) is “significantly increased neuronal AdipoR1/p-AMPK signaling”. In addition, the “Synap and PSD95 expression with AdipoR1 siRNA” value in the data set on Synap and PSD95 (APPswe/ind-overexpressing SH-SY5Y cells exposed to AdipoR1 siRNA) is recorded as “did not restore or increase”. In addition, the “Synap and PSD95 expression” value with Synap and PSD95 (APPswe/ind-overexpressing SH-SY5Y cells) was “restored and significantly increased”.

(Values after paper PMC8042910, “Adiponectin-mimetic novel nonapeptide rescues aberrant neuronal metabolic-associated memory deficits in Alzheimer’s disease” (Molecular Neurodegeneration, 2021).)
